In patent US10632177B2, “Myoblast differentiation promoter” (NITTA GELATIN INC., priority 2012, dated 2020):
Non-standard residues stand in square brackets, D forms with d. No end group written: not given here. Hyp = O=C(O)[C@@H]1C[C@@H](O)CN1

test system: C2C12 myoblast; assay: Myoblast differentiation promotion test in myoblast culture (Western blotting of differentiation markers); format: cell-based, mouse; conditions: Western blot band, numerical value in relation to 100 = control, 100 μM final concentration, eight days exposure
Protocol: Myoblast Differentiation Promotion Test in Myoblast Culture
For culture of C2C12 myoblast derived from mouse, a D-MEM culture medium containing 10% FBS, 100 units/mL sodium penicillin G, 100 μg/mL streptomycin and 1.0 g/L NaHCO3 (D-MEM culture medium (10% FBS, +P/S)) was used. Culture was conducted in an incubator at 37° C. containing 95% air and 5% CO2. In the condition that C2C12 myoblast was 90% confluent, the culture medium was replaced by a D-MEM culture medium including 2% horse serum (HS), 100 units/mL sodium penicillin G, 100 μg/mL streptomycin and 1.0 g/L NaHCO3 (D-MEM culture medium (2% HS+P/S)), and then the D-MEM culture medium (2% HS+P/S) replacement was repeated every two days to lead to differentiation into myotube cells. The peptides of Examples 1 to 21 and Comparative Examples 1 to 3 were added in a final concentration of 100 μM to the culture medium every the culture medium replacement, and cells were continuously exposed thereto for eight days.
The Western blotting method was conducted in the following procedure. The cells used for protein measurement were washed twice with PBS at the time of recovery, and the cells were scraped with a cell scraper and transferred to a tube, and centrifuged at 4° C. and at 250×g for 3 minutes, and then PBS was completely removed. For each tube, the cells were suspended in 100 μL of a buffer (20 mM HEPES-NaOH (pH 7.5), 0.5% NP-40, 1 mM EDTA, 100 μM AEBSF, 1 μg/mL aprotinin, 10 μg/mL leupeptin, 1 mM DTT, 1 mM sodium ortho-vanadate, 10 mM sodium fluoride, 10 μM ammonium molybdate, 10 mM sodium pyrophosphate), and then crushed under ice cooling for 5 seconds three times for each sample by using an ultrasonic disperser, followed by quantification of the amount of a protein. Quantification of the amount of a protein was conducted according to the method of Bradford using bovine serum albumin as a standard protein. After end of SDS-PAGE, a blotting device was used to conduct electro-transferring at 1.5 mA per 1 cm^2 of a membrane for 1 hour on a PVDF membrane equilibrated with methanol and subjected to pre-wetting by infiltration with a transfer buffer (48 mM Tris, 39 mM glycine). After end of the transferring, the PVDF membrane was blocked with PBS (−) containing 6% skim milk for 1 hour. A primary antibody was diluted in the following manner, and an antigen-antibody reaction was conducted overnight at 4° C. A peroxidase-conjugated secondary antibody against each primary antibody was diluted in PBS (−) containing 6% skim milk in the ratios: mouse anti-myosin heavy chain monoclonal antibody (MF20) culture supernatant 1/2000, mouse anti-tropomyosin monoclonal antibody (CH1) culture supernatant 1/2000, rabbit anti-GAPDH polyclonal antibody 1/3000, peroxidase-conjugated anti-mouse IgG 1/5000, and peroxidase-conjugated anti-rabbit IgG 1/2000, allowed to react for 30 minutes, and washed three times with PBS (−) for 10 minutes. Then the membrane was immersed in Immobilon™ Western Chemiluminescent HRP Substrate for 3 minutes, and detected by LAS-4000 (GE Healthcare, Buckinghamshire, UK). A band was converted into numbers by imageJ, and expressed in a numerical value in relation to 100 which was the value of the control.

Going from Leu-Hyp [Example 3] to “Ala-Hyp [Comparative Example 1, reference compound]”, the Myosin heavy chain falls from 143 to 62.

Going from Hyp-Gly [Example 7] to Ala-[Hyp]-Gly [Example 1], the Myosin heavy chain falls from 334 to 218.

Going from Pro-Hyp [Example 8] to Glu-Hyp [Example 4], the Myosin heavy chain falls from 278 to 214.

Going from Pro-Ala [Example 6] to Gly-Pro-[Hyp] [Example 5], the Myosin heavy chain rises from 131 to 217.

[Hyp]-Gly-Pro [Example 2] gave a Myosin heavy chain of 166.

Going from Leu-Hyp [Example 3] to “Ala-Hyp [Comparative Example 1, reference compound]”, the Tropomyosin falls from 195 to 44.

Compared with Hyp-Gly [Example 7], Ala-[Hyp]-Gly [Example 1] is lower in Tropomyosin: 419 for the first, 191 for the second.

Going from Pro-Hyp [Example 8] to Glu-Hyp [Example 4], the Tropomyosin falls from 307 to 140.

Going from Pro-Ala [Example 6] to Gly-Pro-[Hyp] [Example 5], the Tropomyosin falls from 169 to 165.

Substance [Hyp]-Gly-Pro [Example 2] has a Tropomyosin of 181.
